In patent US20060264460A1 (Wyeth, priority 2005, published 2006):
Blank lines part the entries; values can stand above or below the compound they belong to.

Target: T1, human Cot/Tpl2 kinase (Homo sapiens, UniProt P41279)
T1 construct: human Cot/Tpl2 kinase construct encoding residues 30-398; 6His (N); made in house; host or cells: Sf9 insect cells, baculovirus system (BD Biosciences)
Experiment: Tpl2/Cot kinase assay: GST-MEK1 phosphorylation detected by ELISA (DELFIA Eu)
Assay type: biochemical
Procedure, shortened: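 His-tagged human Tpl2 from Sf9 cells, Ni-affinity and size-exclusion purified (monomer). 0.4 nM Tpl2 with 35 nM GST-MEK1, 50 uM ATP, MOPS pH 7.2, 1% DMSO, 1 h at 30° C; EDTA stop. MEK1 Ser217/221 phosphorylation detected by anti-phospho-MEK1 and Eu-labelled secondary ELISA; IC50 fitted.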

[1] = 0.4 nM Tpl2, 35 nM GST-MEK1, 50 uM ATP, 1 h at 30° C.
[2] = Tpl2/Cot kinase, GST-MEK1 substrate, 50 uM ATP
[3] = Table 2, Tpl2/Cot kinase, GST-MEK1 substrate, 50 uM ATP
[4] = Tpl2/Cot kinase, GST-MEK1 substrate, 50 uM ATP, 1 h at 30° C., Table 2

T1 sequence (P41279 30-398): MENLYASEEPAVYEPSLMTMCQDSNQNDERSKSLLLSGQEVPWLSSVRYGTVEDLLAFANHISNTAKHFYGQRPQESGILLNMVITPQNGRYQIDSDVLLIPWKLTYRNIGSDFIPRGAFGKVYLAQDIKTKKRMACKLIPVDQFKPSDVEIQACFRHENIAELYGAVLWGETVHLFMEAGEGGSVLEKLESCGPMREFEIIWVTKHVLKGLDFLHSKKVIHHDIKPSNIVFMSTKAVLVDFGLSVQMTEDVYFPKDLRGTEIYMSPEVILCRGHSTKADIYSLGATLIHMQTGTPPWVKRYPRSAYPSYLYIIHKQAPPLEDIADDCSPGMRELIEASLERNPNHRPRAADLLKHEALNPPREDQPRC

- IC50 [1]: 420 nM
SMILES: N#Cc1cnc2c(Br)cc(NCCN3CCOCC3)cc2c1Nc1cccc(Cl)c1 [Example 69, 8-bromo-4-(3-chlorophenylamino)-6-(2-morpholinoethylamino)quinoline-3-carbonitrile]

- IC50 [2]: 48 nM
SMILES: CN1CCCN(CCCn2cc(CNc3cc(Cl)c4ncc(C#N)c(Nc5ccc(F)c(Cl)c5)c4c3)nn2)CC1 [Example 794]

- IC50 [2]: 48 nM
SMILES: CN(CCn1cc(CNc2cc(Cl)c3ncc(C#N)c(Nc4ccc(F)c(Cl)c4)c3c2)nn1)C(=O)OC(C)(C)C [Example 676]

- IC50 [2]: 76 nM
SMILES: COCn1cc(CNc2cc(Br)c3ncc(C#N)c(Nc4ccc(F)c(Cl)c4)c3c2)nn1 [Example 917]

- IC50 [1]: 36 nM
SMILES: N#Cc1cnc2c(Br)cc(NCc3cccnc3)cc2c1Nc1cccc(Cl)c1 [Example 70, 8-bromo-4-(3-chlorophenylamino)-6-(pyridin-3-ylmethylamino)quinoline-3-carbonitrile]

- IC50 [3]: 140 nM
SMILES: N#Cc1cnc2c(Br)cc(NCC(=O)O)cc2c1Nc1ccc(F)c(Cl)c1 [Example 630]

- IC50 [1]: 1100 nM
SMILES: COc1cc(NCc2cccnc2)cc2c(Nc3ccc(F)c(Cl)c3)c(C#N)cnc12 [Example 28, 4-(3-Chloro-4-fluoro-phenylamino)-8-methoxy-6-[(pyridin-3-ylmethyl)-amino]-quinoline-3-carbonitrile]

- IC50 [1]: > 40000 nM
SMILES: Cc1cccc(CNc2cc(C(=O)N(C)C)c3ncc(C#N)c(Nc4ccc(F)c(Cl)c4)c3c2)c1 [Example 92, 4-(3-chloro-4-fluorophenylamino)-3-cyano-N,N-dimethyl-6-(3-methylbenzylamino)quinoline-8-carboxamide]

- IC50 [2]: 10 nM
SMILES: Cc1ncccc1Cn1cc(CNc2cc(Cl)c3ncc(C#N)c(Nc4ccc(F)c(Cl)c4)c3c2)nn1 [Example 840]

- IC50 [1]: 11300 nM
SMILES: N#Cc1cnc2c(O)cc(NCc3cnc[nH]3)cc2c1Nc1ccc(F)c(Cl)c1 [Example 181, 6-((1H-imidazol-5-yl)methylamino)-4-(3-chloro-4-fluorophenylamino) 8-hydroxyquinoline-3-carbonitrile]

- IC50 [3]: 570 nM
SMILES: N#Cc1cnc2c(CO)cc(NCc3cnc[nH]3)cc2c1Nc1ccc(F)c(Cl)c1 [Example 464]

- IC50 [1]: > 40000 nM
SMILES: Cn1cc(Cl)c(CNc2ccc3ncc(C#N)c(Nc4ccc(F)c(Cl)c4)c3c2)n1 [Example 135, 6-((4-chloro-1-methyl-1H-pyrazol-3-yl)methylamino)-4-(3-chloro-4-fluorophenylamino)quinoline-3-carbonitrile]

- IC50 [2]: 3.1 nM
SMILES: N#Cc1cnc2c(Br)cc(NCc3cn(Cc4cccnc4)cn3)cc2c1Nc1ccc(F)c(Cl)c1 [Example 706]

- IC50 [3]: 100 nM
SMILES: Cc1cc(CNc2cc(Cl)c3ncc(C#N)c(Nc4ccc(F)c(Cl)c4)c3c2)n[nH]1 [Example 429]

- IC50 [4]: 400 nM
SMILES: CC(C)(C)OC(=O)N1CCC(n2cc(CNc3cc(Cl)c4ncc(C#N)c(Nc5ccc(Oc6ccccc6)cc5)c4c3)nn2)CC1 [Example 989]

- IC50 [4]: 430 nM
SMILES: CC(C)N1CCN(CCn2cc(CNc3cc(Cl)c4ncc(C#N)c(Nc5ccc(F)c(Cl)c5)c4c3)nn2)CC1 [Example 965]

- IC50 [1]: 3300 nM
SMILES: Cc1cc(NCc2cccnc2)cc2c(Nc3cccc(Br)c3)c(C#N)cnc12 [Example 126, 4-(3-bromophenylamino)-8-methyl-6-(pyridin-3-ylmethylamino)quinoline-3-carbonitrile]

- IC50 [1]: > 40000 nM
SMILES: N#Cc1cnc2ccc(NCc3c[nH]c4c(F)c(F)c(F)c(F)c34)cc2c1Nc1ccc(F)c(Cl)c1 [Example 49, 4-(3-Chloro-4-fluoro-phenylamino)-6-[(4,5,6,7-tetrafluoro-1H-indol-3-ylmethyl)-amino]-quinoline-3-carbonitrile]

- IC50 [1]: > 40000 nM
SMILES: CN(C)CCN1CCN(c2cc3ncc(C#N)c(Nc4ccc(F)c(Cl)c4)c3cc2NCc2cnc[nH]2)CC1 [Example 164, 6-((1H-imidazol-5-yl)methylamino)-4-(3-chloro-4-fluorophenylamino)-7-(4-(2-(dimethylamino)ethyl)piperazin-1-yl)quinoline-3-carbonitrile]

- IC50 [1]: 1400 nM
SMILES: CCNc1cc(Cl)c2ncc(C#N)c(Nc3ccc(F)c(Cl)c3)c2c1 [Example 199, 8-chloro-4-[(3-chloro-4-fluorophenyl)amino]-6-(ethylamino)quinoline-3-carbonitrile]

- IC50 [1]: 87 nM
SMILES: COC(=O)c1nc[nH]c1CNc1cc(Br)c2ncc(C#N)c(Nc3ccc(F)c(Cl)c3)c2c1 [Example 110, Methyl 5-((8-bromo-4-(3-chloro-4-fluorophenylamino)-3-cyanoquinolin-6-ylamino)methyl)-1H-imidazole-4-carboxylate]

- IC50 [1]: 3.2 nM
SMILES: N#Cc1cnc2c(Cl)cc(NCc3[nH]cnc3CCCO)cc2c1Nc1ccc(F)c(Cl)c1 [Example 205, 8-chloro-4-[(3-chloro-4-fluorophenyl)amino]-6-({[4-(3-hydroxypropyl)-1H-imidazol-5-yl]methyl}amino)quinoline-3-carbonitrile]

- IC50 [1]: 1300 nM
SMILES: N#Cc1cnc2ccc(NCc3cccc(Cl)c3)cc2c1Nc1ccc(F)c(Cl)c1 [Example 152, 6-(3-chlorobenzylamino)-4-(3-chloro-4-fluorophenylamino)quinoline-3-carbonitrile]

- IC50 [3]: 91 nM
SMILES: N#Cc1cnc2c(Cl)cc(NCc3cn(CCOCCOCCO)nn3)cc2c1Nc1ccc(F)c(Cl)c1 [Example 572]

- IC50 [1]: 18 nM
SMILES: Cn1c(CNc2ccc3ncc(C#N)c(Nc4ccc(F)c(Cl)c4)c3c2)nc2ccccc21 [Example 7, 4-(3-Chloro-4-fluoro-phenylamino)-6-[(1-methyl-1H-benzoimidazol-2-ylmethyl)-amino]-quinoline-3-carbonitrile]

- IC50 [2]: 20 nM
SMILES: CN(C)CCCn1cc(CNc2cc(Br)c3ncc(C#N)c(Nc4ccc(F)c(Cl)c4)c3c2)nn1 [Example 662]

- IC50 [2]: 39 nM
SMILES: CN1CCN(CCCn2cc(CNc3cc(Cl)c4ncc(C#N)c(Nc5ccc(F)c(Cl)c5)c4c3)nn2)CC1 [Example 796]

- IC50 [4]: 8.2 nM
SMILES: N#Cc1cnc2c(Cl)cc(NCc3cn(C4CCN(C[C@@H](O)[C@H](O)CO)CC4)nn3)cc2c1Nc1ccc(F)c(Cl)c1 [Example 991]

- IC50 [1]: 7100 nM
SMILES: N#Cc1cnc2c(CCC(=O)CO)cc(N)cc2c1Nc1ccc(F)c(Cl)c1 [Example 309, 6-amino-4-[(3-chloro-4-fluorophenyl)amino]-8-(4-hydroxy-3-oxobutyl)quinoline-3-carbonitrile]

- IC50 [3]: 200 nM
SMILES: Cn1cnc(CNc2cc(Br)c3ncc(C#N)c(Nc4ccc(F)c(Cl)c4)c3c2)n1 [Example 486]

- IC50 [4]: 17 nM
SMILES: N#Cc1cnc2c(Cl)cc(NCc3cn(C4CCC(NC5CC5)CC4)nn3)cc2c1Nc1ccc(F)c(Cl)c1 (stereo not drawn) [Example 1040]

- IC50 [3]: 870 nM
SMILES: N#Cc1cnc2c(Cl)cc(NCC(=O)c3ccccc3)cc2c1Nc1ccc(F)c(Cl)c1 [Example 447]

- IC50 [3]: 250 nM
SMILES: CC(C)(C)OC(=O)N1CCCC(Cn2cc(CNc3cc(Cl)c4ncc(C#N)c(Nc5ccc(F)c(Cl)c5)c4c3)nn2)C1 (stereo not drawn) [Example 541]

- IC50 [4]: 41 nM
SMILES: CCN1C2CCC1CC(n1cc(CNc3cc(Cl)c4ncc(C#N)c(Nc5ccc(F)c(Cl)c5)c4c3)nn1)C2 (stereo not drawn) [Example 1005]

- IC50 [1]: 350 nM
SMILES: N#Cc1cnc2c(Br)cc(NCc3nn[nH]c3-c3cccc(F)c3)cc2c1Nc1ccc(F)c(Cl)c1 [Example 119, 8-bromo-4-[(3-chloro-4-fluorophenyl)amino]-6-({[5-(3-fluorophenyl)-1H-1,2,3-triazol-4-yl]methyl}amino)quinoline-3-carbonitrile]

- IC50 [2]: 140 nM
SMILES: N#Cc1cnc2c(Br)cc(NCc3cn(CCOCCOCCO)nn3)cc2c1Nc1ccc(F)c(Cl)c1 [Example 741]
